Key:
[1] = tested on: Viola arvensis, Bromus spp., Lolium spp., Agropyron repens and Urtica urens; details: reported by Hoechst et al., 1991; cited from earlier work
Brachiaria decumbens = experiment: Greenhouse post-emergence herbicidal efficacy, % weed control; format: in vivo
Text: (§1) This effectiveness of all treatments can be evaluated according to Colby's equation. In the Colby's equation given below, E is the expected efficacy of combination of L-glufosinate, salts, esters, or combinations thereof, and an herbicide of the phenoxypropionic herbicide class, • X is the observed efficacy of L-glufosinate, salts, esters, or combinations thereof and • Y is the observed efficacy of the herbicide of the phenoxypropionic herbicide class.
(§2) Observed efficacy values i.e. X and Y are % weed control for L-glufosinate, salts, esters, or combinations thereof and an herbicide of the phenoxypropionic herbicide class. If observed efficacy of combination of L-glufosinate, salts, esters, or combinations thereof and the herbicide of the phenoxypropionic herbicide class is greater than its expected efficacy, then combination is determined to be synergistic. If observed efficacy is equal to or less than expected efficacy, then combination is determined to be non-synergistic.
(§3) Methodology: Greenhouse trials were carried out to evaluate the efficacy of the combination of L-glufosinate ammonium and phenoxypropionic herbicides—haloxyfop, quizalofop-ethyl, quizalofop-P-tefuryl—on weeds Eleusine indica, Brachiaria decumbens, Spermacoce latifolia and Glycine max.
(§4) The soil used was sandy clay loam-Sand: 68.0%; Silt: 8.0%; Clay: 24.0%.
(§5) All treatments were in 4 replications per treatment with a spray volume of […].
(§6) The expected efficacy of a combination of L-glufosinate and the other herbicides was calculated using the well-established Colby method. Any difference between the observed and “expected” efficacy could be attributed to synergy between the two compounds. (Colby, S. R., Weeds, 1967 (15), p. 20-22).
Experiment was conducted to assess the efficacy herbicidal combination comprising L-glufosinate ammonium (glufosinate-p-ammonium) and haloxyfop to control the weed, Brachiaria decumbens.
The percentage efficacy was calculated after 7, 14 days of application (DAA). The target weed was Brachiaria decumbens, and the concentration of the herbicide and the results are recorded in the table 1 below:
Experiment was conducted to assess the efficacy herbicidal combination comprising L-glufosinate ammonium (glufosinate-p-ammonium) and quizalofop-ethyl to control the weed, Brachiaria decumbens.
The percentage efficacy was calculated after 28 and 35 days of application (DAA). The target weed was Brachiaria decumbens, and the concentration of the herbicide and the results are recorded in the table 2 below:
Experiment was conducted to assess the efficacy herbicidal combination comprising L-glufosinate ammonium (glufosinate-p-ammonium) and quizalofop-P-tefuryl to control the weed, Brachiaria decumbens.
The percentage efficacy was calculated after 14, 21, 28, 35 days of application (DAA). The target weed was Brachiaria decumbens, and the concentration of the herbicide and the results are recorded in the table 3 below: […]

Glycine max = experiment: as above; format: in vivo; details: for % control: Table 8, L-glufosinate ammonium 150, haloxyfop 50 g ai/ha
Text: as §1, §2, §3, §4, §5, §6
Experiment was conducted to assess the efficacy herbicidal combination comprising L-glufosinate ammonium (glufosinate-p-ammonium) and haloxyfop to control the weed, Glycine max.
The percentage efficacy was calculated after 3, 7, 14, 21, 28, 35 days of application (DAA). The target weed was Glycine max, and the concentration of the herbicide and the results are recorded in the table 8 below:
Experiments were conducted to assess the efficacy of herbicidal combination comprising L-glufosinate ammonium (glufosinate-p-ammonium) and quizalofop-ethyl to control the weedy Glycine max.
The percentage efficacy was calculated after 3, 28 and 35 days of applications (DAA). The target weed was Glycine max, and the concentration of the herbicide and the results are recorded in the table 9 below:
Experiments were conducted to assess the efficacy of herbicidal combination comprising L-glufosinate ammonium (glufosinate-p-ammonium) and quizalofop-p-tefuryl to control the weedy Glycine max.
The percentage efficacy was calculated after 3, 28 and 35 days of applications (DAA). The target weed was Glycine max, and the concentration of the herbicide and the results are recorded in the table 10 below.

Spermacoce latifolia = experiment: as above; format: in vivo; details: Table 7, L-glufosinate ammonium 150, haloxyfop 50 g/ha
Text: as §1, §2, §3, §4, §5, §6
Experiment was conducted to assess the efficacy herbicidal combination comprising L-glufosinate ammonium (glufosinate-p-ammonium) and haloxyfop to control the weed, Spermacoce latifolia.
The percentage efficacy was calculated after 7, 14, 21, 28, 35 days of application (DAA). The target weed was Spermacoce latifolia, and the concentration of the herbicide and the results are recorded in the table 7 below: […]

Eleusine indica = experiment: as above; format: in vivo; details: for Control %: Table 6, L-glufosinate ammonium 150, quizalofop-p-tefuryl 25 g/ha
Text: as §1, §2, §3, §4, §5, §6
Experiment was conducted to assess the efficacy herbicidal combination comprising L-glufosinate ammonium (glufosinate-p-ammonium) and haloxyfop to control the weed, Eleusine indica.
The percentage efficacy was calculated after 7 days of application (DAA). The target weed was Eleusine indica, and the concentration of the herbicide and the results are recorded in the table 4 below:
Experiment was conducted to assess the efficacy herbicidal combination comprising L-glufosinate ammonium (glufosinate-p-ammonium) and quizalofop-ethyl to control the weed, Eleusine indica.
The percentage efficacy was calculated after 21 days of application (DAA). The target weed was Eleusine indica, and the concentration of the herbicide and the results are recorded in the table 5 below:
Experiment was conducted to assess the efficacy herbicidal combination comprising L-glufosinate ammonium (glufosinate-p-ammonium) and quizalofop-P-tefuryl to control the weed, Eleusine indica.
The percentage efficacy was calculated after 21, 28, 35 days of application (DAA). The target weed was Eleusine indica, and the concentration of the herbicide and the results are recorded in the table 6 below: […]

[2] = Table 1, 7 DAA, L-glufosinate ammonium 150, haloxyfop 50 g a.i./ha
[3] = Table 1, 14 DAA, L-glufosinate ammonium 150, haloxyfop 50 g a.i./ha
[4] = Table 2, 28 DAA, L-glufosinate ammonium 150, quizalofop-ethyl 25 g a.i./ha
[5] = Table 2, 35 DAA, L-glufosinate ammonium 150, quizalofop-ethyl 25 g a.i./ha
[6] = Table 3, 14 DAA, L-glufosinate ammonium 150, quizalofop-p-tefuryl 25 g/ha
[7] = Table 3, 21 DAA, L-glufosinate ammonium 150, quizalofop-p-tefuryl 25 g/ha
[8] = Table 3, 28 DAA, L-glufosinate ammonium 150, quizalofop-p-tefuryl 25 g/ha
[9] = Table 3, 35 DAA, L-glufosinate ammonium 150, quizalofop-p-tefuryl 25 g/ha
[10] = Table 9, 3 DAA, L-glufosinate ammonium 150, quizalofop-ethyl 25 g/ha
[11] = Table 9, 28 DAA, L-glufosinate ammonium 150, quizalofop-ethyl 25 g/ha
[12] = Table 9, 35 DAA, L-glufosinate ammonium 150, quizalofop-ethyl 25 g/ha
[13] = Table 10, 3 DAA, L-glufosinate ammonium 150, quizalofop-p-tefuryl 25 g/h
[14] = Table 10, 28 DAA, L-glufosinate ammonium 150, quizalofop-p-tefuryl 25 g/h
[15] = Table 10, 35 DAA, L-glufosinate ammonium 150, quizalofop-p-tefuryl 25 g/h
[16] = Table 4, 7 DAA, L-glufosinate ammonium 150, haloxyfop 50 g ai/ha
[17] = Table 5, 21 DAA, L-glufosinate ammonium 150, quizalofop-ethyl 25 g ai/ha

SMILES | Control % (Brachiaria decumbens; [2]) | Control % (Brachiaria decumbens; [3]) | Control % (Brachiaria decumbens; [4]) | Control % (Brachiaria decumbens; [5]) | Control % (Brachiaria decumbens; [6]) | Control % (Brachiaria decumbens; [7]) | Control % (Brachiaria decumbens; [8]) | Control % (Brachiaria decumbens; [9]) | % control (Glycine max; 3 DAA) | % control (Glycine max; 7 DAA) | % control (Glycine max; 14 DAA) | % control (Glycine max; 21 DAA) | % control (Glycine max; 28 DAA) | % control (Glycine max; 35 DAA) | Control % (Glycine max; [10]) | Control % (Glycine max; [11]) | Control % (Glycine max; [12]) | Control % (Glycine max; [13]) | Control % (Glycine max; [14]) | Control % (Glycine max; [15]) | further results
CP(=O)(O)CCC(N)C(=O)O (racemic) [glufosinate, DL-homoalanin-4-yl(methyl)phosphinic acid] |  |  |  |  |  |  |  |  |  |  |  |  |  |  |  |  |  |  |  |  | control of weed species [1]: either not combated, or only weakly combated
CP(=O)(O)CC[C@H](N)C(=O)O.N [L-glufosinate ammonium, ammonium (2S)-2-amino-4-(methylphosphinato)butyric acid] | 50% | 79.3% | 60% | 55% | 75% | 70% | 60% | 55% | 15% | 53.3% | 71% | 66.7% | 56.7% | 41.7% | 50% | 40% | 40% | 50% | 60% | 55% | Control % (Spermacoce latifolia; 7 DAA): 31.7%; Control % (Spermacoce latifolia; 14 DAA): 81.7%; Control % (Spermacoce latifolia; 21 DAA): 83.3%; Control % (Spermacoce latifolia; 28 DAA): 83.3%; Control % (Spermacoce latifolia; 35 DAA): 83.3%; % control (Eleusine indica; [16]): 50.7%; % control (Eleusine indica; [17]): 35%; Control % (Eleusine indica; 21 DAA): 25%; Control % (Eleusine indica; 28 DAA): 20%; Control % (Eleusine indica; 35 DAA): 18%
CC(Oc1ccc(Oc2ncc(C(F)(F)F)cc2Cl)cc1)C(=O)O (stereo not shown) [Haloxyfop, haloxyfop] | 26.7% | 75.3% |  |  |  |  |  |  | 5% | 13.3% | 15% | 12.3% | 12.3% | 12.3% |  |  |  |  |  |  | Control % (Spermacoce latifolia; 7 DAA): 8%; Control % (Spermacoce latifolia; 14 DAA): 8.7%; Control % (Spermacoce latifolia; 21 DAA): 10%; Control % (Spermacoce latifolia; 28 DAA): 31%; Control % (Spermacoce latifolia; 35 DAA): 9.3%; % control (Eleusine indica; [16]): 25%
CCOC(=O)C(C)Oc1ccc(Oc2cnc3cc(Cl)ccc3n2)cc1 (stereo not shown) [quizalofop-ethyl] |  |  | 35% | 30% |  |  |  |  |  |  |  |  |  |  | 0% | 0% | 0% |  |  |  | % control (Eleusine indica; [17]): 95%
C[C@@H](Oc1ccc(Oc2cnc3cc(Cl)ccc3n2)cc1)C(=O)OCC1CCCO1 (stereo partly shown) [quizalofop-p-tefuryl] |  |  |  |  | 20% | 10% | 5% | 5% |  |  |  |  |  |  |  |  |  | 0% | 0% | 0% | Control % (Eleusine indica; 21 DAA): 10%; Control % (Eleusine indica; 28 DAA): 5%; Control % (Eleusine indica; 35 DAA): 5%

Reference: US20260206764A1, “AN HERBICIDAL COMBINATION, COMPOSITION AND METHOD OF CONTROLLING WEEDS USING THE SAME” (priority 2023, published 2026)
